Experiments:
Assay type in all cases: biochemical
c-MET kinase = target: T1, c-MET kinase (Homo sapiens, UniProt P08581); assay: c-MET Kinase Assay; conditions: for fold potency versus c-MET kinase relative to corresponding mono-fluoro analog: Compound D vs Compound E, Compound G vs Compound F; for IC50: methods of the Biological Data section
T1 construct: His6 with TEV-site leader (N); purchased Invitrogen PV3143
Experimental: Activity of c-MET kinase (Seq. ID No. 2) was determined by following the production of ADP from the kinase reaction through coupling with the pyruvate kinase/lactate dehydrogenase system (e.g., Schindler et al. Science 2000, 289, pp. 1938-1942). In this assay, the oxidation of NADH (thus the decrease at A340 nm) was continuously monitored spectrophotometrically. The reaction mixture (100 μl) contained c-MET (c-MET residues: 956-1390, from Invitrogen, catalogue #PV3143, 6 nM), polyE4Y (1 mg/mL), MgCl2 (10 mM), pyruvate kinase (4 units), lactate dehydrogenase (0.7 units), phosphoenol pyruvate (1 mM), and NADH (0.28 mM) in 90 mM Tris buffer containing 0.25 mM DTT, 0.2% octyl-glucoside and 1% DMSO, 7.5. Test compounds were incubated with c-MET (Seq. ID No. 2) and other reaction reagents at 22° C. for 0.5 h before ATP (100 μM) was added to start the reaction. The absorption at 340 nm was monitored continuously for 2 hours at 30° C. on Polarstar Optima plate reader (BMG). The reaction rate was calculated using the 1.0 to 2.0 h time frame. Percent inhibition was obtained by comparison of reaction rate with that of a control (i.e., with no test compound). IC50 values were calculated from a series of percent inhibition values determined at a range of inhibitor concentrations using software routines as implemented in the GraphPad Prism software package.

VEGFR-1 (FLT1 kinase) = target: T2, VEGFR-1 (FLT1 kinase) (Homo sapiens, UniProt P17948); assay: FLT1 Kinase Assay (VEGFR-1); conditions: for IC50: methods of the Biological Data section; for Fold Selectivity VEGR-1/MET: ratio VEGFR-1 IC50 / MET IC50
T2 construct: GST tagged recombinant human FLT1, amino acids 781-1338; GST; host or cells: insect cells
T2 sequence (P17948 781-1338): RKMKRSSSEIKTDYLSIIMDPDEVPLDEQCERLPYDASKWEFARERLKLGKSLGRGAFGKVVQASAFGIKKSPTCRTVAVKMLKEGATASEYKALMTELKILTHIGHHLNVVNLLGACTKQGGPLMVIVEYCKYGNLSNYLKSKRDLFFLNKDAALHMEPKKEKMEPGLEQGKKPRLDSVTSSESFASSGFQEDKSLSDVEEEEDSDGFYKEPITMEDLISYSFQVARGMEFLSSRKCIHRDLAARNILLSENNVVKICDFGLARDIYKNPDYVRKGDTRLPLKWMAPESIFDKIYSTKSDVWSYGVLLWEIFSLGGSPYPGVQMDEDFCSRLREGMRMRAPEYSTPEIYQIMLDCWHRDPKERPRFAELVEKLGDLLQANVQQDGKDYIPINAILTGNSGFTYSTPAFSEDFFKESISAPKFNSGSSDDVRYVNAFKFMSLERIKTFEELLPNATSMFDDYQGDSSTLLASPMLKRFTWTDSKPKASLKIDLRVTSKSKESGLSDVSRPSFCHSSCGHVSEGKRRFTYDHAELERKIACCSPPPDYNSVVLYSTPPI
Experimental: Activity of FLT1 kinase was determined by a radioactive filtration binding assay where incorporation of ^33P from ^33P-γ-ATP to the substrate is measured. In this assay, detection of ^33P was indicative of FLT1 phosphorylation activity which was directly proportional to the amount of phosphorylated peptide substrate poly[Glu:Tyr] (4:1). Initially, the reaction mixture contained: 400 nM FLT1, 20 mM HEPES, pH 7.5, 10 mM MgCl2, 2 mM MnCl2, 1 mM EGTA, 0.02% Brij 35, 0.02 mg/mL BSA, 0.1 mM Na3VO4, and 2 mM DTT. The reaction mixture was incubated with compound at room temperature for 30 minutes. To initiate the reaction, an equal volume of 20 μM ATP and 0.2 mg/mL peptide substrate were added and then incubated at room temperature for 2 hours. The final assay conditions were: 200 nM FLT1, 10 μM ATP, 0.1 mg/ml, substrate 20 mM HEPES, pH 7.5, 10 mM MgCl2, 1 mM EGTA, 0.02% Brij 35, 0.02 mg/mL BSA, 0.1 mM Na3VO4, 2 mM DTT, and 1% DMSO. IC50 values were calculated from a series of % Activity values determined at a range of inhibitor concentrations using software routines as implemented in the Graph Pad Prism software package.
GST tagged recombinant human FLT1, amino acids 781-1338. Expressed in insect cells.

VEGFR-2 (KDR kinase) = VEGFR-2 (KDR kinase) (Homo sapiens, UniProt P35968, DEL940-989/E990V); assay: KDR Kinase Assay (VEGFR-2); conditions: for IC50: methods of the Biological Data section; for Fold Selectivity VEGFR-2/MET: ratio VEGFR-2 IC50 / MET IC50
Experimental: The activity of KDR kinase was determined by following the production of ADP from the kinase reaction through coupling with the pyruvate kinase/lactate dehydrogenase system (e.g., Schindler et al. Science 2000, 289, pp. 1938-1942). In this assay, the oxidation of NADH (thus the decrease at A340 nm) was continuously monitored spectrophotometrically. The reaction mixture (100 μl) contained KDR (Seq ID No. 3, 1.5 nM to 7.1 nM, nominal concentration), polyE4Y (1 mg/mL), pyruvate kinase (3.5 units), lactate dehydrogenase (5.5 units), phosphoenolpyruvate (1 mM), and NADH (0.28 mM) in 60 mM […] buffer containing 0.13% octyl-glucoside, 13 mM MgCl2, 6.8 mM DTT, and 3.5% DMSO at pH 7.5. The reaction was initiated by adding ATP (0.2 mM, final concentration). The absorption at 340 nm was continuously monitored for 3 h at 30° C. on a Polarstar Optima plate reader (BMG) or instrument of similar capacity. The reaction rate was calculated using the 1 h to 2 h time frame. Percent inhibition was obtained by comparison of reaction rate with that of a control (i.e., with no test compound). IC50 values were calculated from a series of percent inhibition values determined at a range of inhibitor concentrations using software routines as implemented in the GraphPad Prism software package.
KDR kinase assay K2 is the same as for assay K1 except that (1) a nominal concentration of 2.1 nM of enzyme was employed (2) the reaction was pre-incubated at 30° C. for 2 h prior to initiation with ATP and (3) 1.0 mM ATP (final concentration) was used to initiate the reaction.
KDR kinase assay K3 is the same as for assay K1 except that (1) a nominal concentration of 1.1 nM of enzyme was employed, (2) the buffer components per 100 μl reaction mixture were as follows: 75 mM Tris buffer containing 0.066% octyl-glucoside, 17 mM MgCl2, and 1% DMSO at pH 7.5, (3) the final concentration of DTT was 0.66 mM, (4) the reaction was pre-incubated at 30° C. for 1 h prior to initiation with ATP, and (5) 1.0 mM ATP (final concentration) was used to initiate the reaction.

T1 sequence (P08581 with tags, fused parts or gaps): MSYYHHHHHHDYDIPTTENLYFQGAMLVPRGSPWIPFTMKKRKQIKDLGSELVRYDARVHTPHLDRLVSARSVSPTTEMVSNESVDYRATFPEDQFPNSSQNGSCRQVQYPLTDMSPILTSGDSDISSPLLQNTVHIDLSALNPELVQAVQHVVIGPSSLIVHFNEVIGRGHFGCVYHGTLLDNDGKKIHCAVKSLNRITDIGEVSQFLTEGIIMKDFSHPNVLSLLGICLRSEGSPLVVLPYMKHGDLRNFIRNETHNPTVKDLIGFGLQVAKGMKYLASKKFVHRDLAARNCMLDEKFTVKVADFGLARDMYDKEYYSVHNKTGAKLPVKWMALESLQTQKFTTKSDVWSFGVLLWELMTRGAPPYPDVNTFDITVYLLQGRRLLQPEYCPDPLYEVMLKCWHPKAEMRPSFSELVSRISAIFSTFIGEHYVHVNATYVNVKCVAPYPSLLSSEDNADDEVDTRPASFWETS
VEGFR-2 (KDR kinase), sequence (P35968 with tags, fused parts or gaps DEL940-989/E990V): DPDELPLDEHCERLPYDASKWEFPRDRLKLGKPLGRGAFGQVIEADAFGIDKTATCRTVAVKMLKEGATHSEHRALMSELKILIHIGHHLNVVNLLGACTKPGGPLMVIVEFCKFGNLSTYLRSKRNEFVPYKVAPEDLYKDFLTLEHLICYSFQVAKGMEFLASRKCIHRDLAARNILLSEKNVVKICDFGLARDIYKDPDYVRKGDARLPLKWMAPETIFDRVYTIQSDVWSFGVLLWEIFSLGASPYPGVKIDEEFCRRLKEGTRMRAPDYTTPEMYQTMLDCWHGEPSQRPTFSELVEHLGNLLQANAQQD

fold potency versus c-MET kinase relative to corresponding mono-fluoro analog (c-MET kinase)	IC50 (c-MET kinase)	IC50 (VEGFR-1 (FLT1 kinase))	Fold Selectivity VEGR-1/MET (VEGFR-1 (FLT1 kinase))	IC50 (VEGFR-2 (KDR kinase))	Fold Selectivity VEGFR-2/MET (VEGFR-2 (KDR kinase))	Compound
6.5 fold	0.004 µM	0.079 µM	19.75	0.052 µM	13	CC(=O)Nc1cc(Oc2cc(F)c(NC(=O)C3(C(=O)Nc4ccc(F)cc4)CC3)cc2F)ccn1 [Compound D, N-(4-(2-acetamidopyridin-4-yloxy)-2,5-difluorophenyl)-N′-(4-fluorophenyl)cyclopropane-1,1-dicarboxamide]
–	0.026 µM	0.16 µM	6.15	0.122 µM	4.69	CC(=O)Nc1cc(Oc2ccc(NC(=O)C3(C(=O)Nc4ccc(F)cc4)CC3)c(F)c2)ccn1 [Compound E, N-(4-(2-acetamidopyridin-4-yloxy)-2-fluorophenyl)-N′-(4-fluorophenyl)cyclopropane-1,1-dicarboxamide]
1.1 fold	–	–	0.45	–	2.13	CN1CCN(C2CCN(C(=O)Nc3cc(Oc4cc(F)c(NC(=O)C5(C(=O)Nc6ccc(F)cc6)CC5)cc4F)ccn3)CC2)CC1 [Compound G]
–	–	–	3.5	–	2.5	O=C(Nc1cc(Oc2cc(F)c(NC(=O)C3(C(=O)Nc4ccc(F)cc4)CC3)cc2F)ccn1)N1CC(CO)C1 [Compound H]

From patent US8637672B2 (Deciphera Pharmaceuticals, LLC, priority 2010, dated 2014)
